# Laboratory results as given in patent US11352322B2, “Cyclopropyl-amide compounds as dual LSD1/HDAC inhibitors” (Jubilant Epicore LLC, priority 2016, dated 2022).
# Structures can show the parent of a compound that is named as a salt.
# Columns and labels:
# [1] = Metabolic stability in liver microsomes, HLM; settings: 1 μM, NADPH
# Protocol: (§1) The microsomal suspension was prepared by adding liver microsomes to 100 mM potassium phosphate buffer (pH7.4) to give a final protein concentration of 0.5 mg/mL. The stock solution of NCE (10 mM in DMSO) was added to the microsomes to provide a final concentration of 1 μM. […] Samples were vortexed and centrifuged at 5,000 rpm for 10 min to remove proteins. Supernatant were analyzed on LC-MS/MS.
# [2] = target: HDAC6 human recombinant enzyme (Homo sapiens (Human), UniProt Q9UBN7); test: Histone Deacetylase Assay (BPS Biosciences), HDAC6; type: biochemical
# Source text: Histone Deacetylase Assay (BPS Biosciences)
# Histone deacetylase assay was done as per manufacturer's instructions.
# [3] = Metabolic stability in liver microsomes, MLM; settings: 1 μM, NADPH
# Protocol: as §1
# [4] = target: LSD1 (Homo sapiens (Human), UniProt O60341); test: TR-FRET Assay for LSD1; settings: read-out: LSD1 IC50
# Protocol: TR-FRET Assay for LSD1 (Perkin Elmer)
# Tranylcypromine (TCP), LSD1 inhibitor was procured from Selleckchem. […] Stop Solution containing 300 μM tranylcypromine in 1× LANCE Detection Buffer was added to the wells and incubated for 5 min at RT. Then, Detection mix containing 2 nM Eu-Ab and 50 nM ULight-Streptavidin in 1× LANCE Detection Buffer was prepared and added to the reaction mix. This mixture was incubated for 1 hour at room temperature.
# [5] = system: MM1S; test: Anticancer activity: Alamar Blue assay, MM1S; type: cell-based; settings: Homo sapiens, MM1.S; MM1S cells; read-out: MM1S EC50
# Protocol: Cells were seeded at 5000 cells/per well in 96-well tissue culture plate and incubated at 37° C./5% CO2. After 16-24 hours, fresh media was added to the wells. Compounds were then (1% DMSO conc.) added to the cells at 10 concentrations ranging from 10-0.0005 uM prepared in 3-fold serial dilutions. Cells were incubated for 68-72 h at 37° C./5% CO2. Alamar Blue™ reagent was added and incubated for 1-3 hours at 37° C./5% CO2. Plates were read on fluorescence reader at 540 nm excitation, 590 nm emission wave lengths.
# HDAC6 human recombinant enzyme, sequence (Q9UBN7 whole entry): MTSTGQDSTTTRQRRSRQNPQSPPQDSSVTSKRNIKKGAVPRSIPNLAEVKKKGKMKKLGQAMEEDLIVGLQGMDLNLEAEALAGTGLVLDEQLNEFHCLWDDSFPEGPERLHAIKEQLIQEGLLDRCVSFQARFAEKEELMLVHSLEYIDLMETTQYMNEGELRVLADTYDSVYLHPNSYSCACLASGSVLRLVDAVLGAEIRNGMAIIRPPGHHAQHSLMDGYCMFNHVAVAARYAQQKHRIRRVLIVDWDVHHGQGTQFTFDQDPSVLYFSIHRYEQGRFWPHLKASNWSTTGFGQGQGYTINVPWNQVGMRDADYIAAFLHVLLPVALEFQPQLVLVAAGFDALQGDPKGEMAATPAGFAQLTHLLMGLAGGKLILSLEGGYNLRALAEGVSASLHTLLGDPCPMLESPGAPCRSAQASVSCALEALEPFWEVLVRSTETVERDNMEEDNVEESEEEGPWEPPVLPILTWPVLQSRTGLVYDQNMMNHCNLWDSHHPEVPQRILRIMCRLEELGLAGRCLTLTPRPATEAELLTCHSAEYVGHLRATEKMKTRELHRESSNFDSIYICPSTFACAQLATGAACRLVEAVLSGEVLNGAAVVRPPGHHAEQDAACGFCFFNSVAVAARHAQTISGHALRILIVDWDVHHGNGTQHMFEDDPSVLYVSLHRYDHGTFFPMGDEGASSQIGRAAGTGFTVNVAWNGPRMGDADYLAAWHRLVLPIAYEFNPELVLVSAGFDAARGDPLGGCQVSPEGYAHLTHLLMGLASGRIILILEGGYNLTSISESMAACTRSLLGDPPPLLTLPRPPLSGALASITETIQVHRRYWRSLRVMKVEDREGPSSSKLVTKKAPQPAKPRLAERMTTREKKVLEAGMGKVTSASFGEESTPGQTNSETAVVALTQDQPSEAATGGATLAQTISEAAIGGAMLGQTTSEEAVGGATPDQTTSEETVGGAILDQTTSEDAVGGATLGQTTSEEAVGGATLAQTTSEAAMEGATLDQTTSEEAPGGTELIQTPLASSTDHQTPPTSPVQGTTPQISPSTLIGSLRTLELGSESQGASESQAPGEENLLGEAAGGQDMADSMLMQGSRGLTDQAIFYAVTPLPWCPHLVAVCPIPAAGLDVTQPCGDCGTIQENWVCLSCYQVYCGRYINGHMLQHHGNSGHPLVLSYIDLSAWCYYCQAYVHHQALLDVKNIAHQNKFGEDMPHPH
IC50 [2],IC50 [4],EC50 [5],SMILES,Metabolic stability HLM % remaining in 30 min [1],Metabolic stability MLM % remaining in 30 min [3]
199 nM,34 nM,1430 nM,"Cn1cc(-c2ccc(C3CC3NCC3CCN(Cc4ccc(C(=O)NO)cc4)CC3)cc2)ccc1=O (centres unmarked) [Example 35, N-hydroxy-4-((4-(((2-(4-(1-methyl-6-oxo-1,6-dihydropyridin-3-yl)phenyl)cyclopropyl)amino)methyl)piperidin-1-yl)methyl)benzamide TFA Salt]",–,–
490 nM,15 nM,190 nM,"O=C(NO)c1ccc(CCN2CCC(CNC3CC3c3ccccc3)CC2)cc1 (centres unmarked) [Example 42, N-hydroxy-4-(2-(4-(((2-phenylcyclopropyl)amino)methyl)piperidin-1-yl)ethyl)benzamide TFA Salt]",–,–
272 nM,484 nM,70 nM,"CC(C)n1cc(C2CC2NCC2CCN(CCCc3ccc(C(=O)NO)cc3)CC2)cn1 (centres unmarked) [Example 67, N-hydroxy-4-(3-(4-(((2-(1-isopropyl-1H-pyrazol-4-yl)cyclopropyl)amino)methyl)piperidin-1-yl)propyl)benzamide TFA Salt]",–,–
365 nM,286 nM,246 nM,"O=C(NO)c1ccc(CCCn2cnc(CNC3CC3c3ccccc3)c2)cc1 (centres unmarked) [Example 75, N-hydroxy-4-(3-(4-(((2-phenylcyclopropyl)amino)methyl)-1H-imidazol-1-yl)propyl) benzamide TFA Salt]",–,–
22 nM,84 nM,42 nM,"O=C(NO)c1ccc(CCCn2cc(CNC3CC3c3ccccc3)cn2)cc1 (centres unmarked) [Example 76, N-hydroxy-4-(3-(4-(((2-phenylcyclopropyl)amino)methyl)-1H-pyrazol-1-yl)propyl)benzamide TFA Salt]",–,–
71 nM,65 nM,70 nM,"O=C(NO)c1ccc(CCCn2cc(CNC3CC3c3ccccc3)nn2)cc1 (centres unmarked) [Example 77, N-hydroxy-4-(3-(4-(((2-phenylcyclopropyl)amino)methyl)-1H-1,2,3-triazol-1-yl)propyl)benzamide TFA Salt]",–,–
575 nM,62 nM,> 10000 nM,"O=C(NO)c1ccc(S(=O)(=O)N2CCC(CNC3CC3c3ccccc3)CC2)cc1 (centres unmarked) [Example 85, N-hydroxy-4-((4-(((2-phenylcyclopropyl)amino)methyl)piperidin-1-yl)sulfonyl)benzamide TFA Salt]",–,–
1060 nM,25 nM,9110 nM,"O=C(NO)c1ccc(S(=O)(=O)NCCN2CCC(CNC3CC3c3ccc(F)cc3)CC2)cc1 (centres unmarked) [Example 87, 4-(N-(2-(4-(((2-(4-fluorophenyl)cyclopropyl)amino)methyl)piperidin-1-yl)ethyl)sulfamoyl)-N-hydroxybenzamide TFA Salt]",–,–
720 nM,20 nM,311 nM,"O=C(NO)c1ccc(C(=O)NCCN2CCC(CNC3CC3c3ccccc3)CC2)cc1 (centres unmarked) [Example 89, N-hydroxy-N4-(2-(4-(((2-phenylcyclopropyl)amino)methyl)piperidin-1-yl)ethyl)terephthalamide TFA Salt]",–,–
187 nM,72 nM,1040 nM,"O=C(NO)c1ccc(CCCC2CCN(C(=O)CNC3CC3c3ccccc3)CC2)cc1 (centres unmarked) [Example 93, N-hydroxy-4-(3-(1-(2-((2-phenylcyclopropyl)amino)acetyl)piperidin-4-yl)propyl)benzamide TFA Salt]",–,–
> 10000 nM,33 nM,> 10000 nM,"O=C(NO)c1ccc(OCCN2CCC(CNC3CC3c3ccccc3)CC2)nc1 (centres unmarked) [Example 97, N-hydroxy-6-(2-(4-(((2-phenylcyclopropyl)amino)methyl)piperidin-1-yl)ethoxy)nicotinamide TFA Salt]",–,–
5960 nM,37 nM,> 10000 nM,"O=C(NO)c1ccc(OCCN2CCC(CNC3CC3c3ccc(-c4ccc(F)cc4)cc3)CC2)nc1 (centres unmarked) [Example 98, 6-(2-(4-(((2-(4′-fluoro-[1,1′-biphenyl]-4-yl)cyclopropyl)amino)methyl)piperidin-1-yl)ethoxy)-N-hydroxynicotinamide TFA Salt]",–,–
107 nM,24 nM,1100 nM,"O=C(NO)c1ccc2c(c1)CN(C(=O)CCCN1CCC(CNC3CC3c3ccccc3)CC1)C2 (centres unmarked) [Example 109, N-hydroxy-2-(4-(4-(((2-phenylcyclopropyl)amino)methyl)piperidin-1-yl)butanoyl)isoindoline-5-carboxamide TFA Salt]",–,–
517 nM,22 nM,63 nM,"O=C(NO)c1cnc(CCCN2CCC(CNC3CC3c3ccccc3)CC2)s1 (centres unmarked) [Example 112, N-hydroxy-2-(3-(4-(((2-phenylcyclopropyl)amino)methyl)piperidin-1-yl)propyl)thiazole-5-carboxamide TFA Salt]",–,–
> 10000 nM,128 nM,70 nM,"CC(C)n1cc(C2CC2NCC2CCN(CCCc3ccc(C(=O)Nc4ccccc4N)cc3)CC2)cn1 (centres unmarked) [Example 128, N-(2-aminophenyl)-4-(3-(4-(((2-(1-isopropyl-1H-pyrazol-4-yl)cyclopropyl)amino)methyl)piperidin-1-yl)propyl)benzamide TFA Salt]",–,–
> 10000 nM,139 nM,126 nM,"Nc1ccccc1NC(=O)c1ccc(CCCn2cc(CNC3CC3c3ccccc3)nn2)cc1 (centres unmarked) [Example 137, N-(2-aminophenyl)-4-(3-(4-(((2-phenylcyclopropyl)amino)methyl)-1H-1,2,3-triazol-1-yl)propyl)benzamide TFA Salt]",–,–
> 10000 nM,99 nM,65 nM,"Nc1ccccc1NC(=O)c1ccc(CCCn2cc(CNC3CC3c3ccccc3)cn2)cc1 (centres unmarked) [Example 138, N-(2-aminophenyl)-4-(3-(4-(((2-phenylcyclopropyl)amino)methyl)-1H-pyrazol-1-yl)propyl)benzamide TFA Salt]",–,–
> 10000 nM,61 nM,123 nM,"Nc1ccccc1NC(=O)c1ccc(Cn2cc(CNC3CC3c3ccccc3)cn2)cc1 (centres unmarked) [Example 145, N-(2-aminophenyl)-4-((4-(((2-phenylcyclopropyl)amino)methyl)-1H-pyrazol-1-yl)methyl)benzamide TFA Salt]",–,–
> 10000 nM,69 nM,106 nM,"Nc1ccccc1NC(=O)c1ccc(Cn2cc(CNC3CC3c3ccccc3)nn2)cc1 (centres unmarked) [Example 146, N-(2-aminophenyl)-4-((4-(((2-phenylcyclopropyl)amino)methyl)-1H-1,2,3-triazol-1-yl)methyl)benzamide TFA Salt]",–,–
> 10000 nM,21 nM,> 10000 nM,"Nc1ccccc1NC(=O)c1ccc(OCCN2CCC(CNC3CC3c3ccc(F)cc3)CC2)nc1 (centres unmarked) [Example 149, N-(2-aminophenyl)-6-(2-(4-(((2-(4-fluorophenyl)cyclopropyl)amino)methyl)piperidin-1-yl)ethoxy)nicotinamide TFA Salt]",–,–
> 10000 nM,24 nM,571 nM,"Nc1ccccc1NC(=O)c1coc(CCCN2CCC(CNC3CC3c3ccccc3)CC2)n1 (centres unmarked) [Example 153, N-(2-aminophenyl)-2-(3-(4-(((2-phenylcyclopropyl)amino)methyl)piperidin-1-yl)propyl)oxazole-4-carboxamide TFA Salt]",–,–
> 10000 nM,43 nM,178 nM,"Nc1ccccc1NC(=O)c1ccc(S(=O)(=O)N2CCC(CNC3CC3c3ccccc3)CC2)cc1 (centres unmarked) [Example 160, N-(2-aminophenyl)-4-((4-(((2-phenylcyclopropyl)amino)methyl)piperidin-1-yl)sulfonyl)benzamide TFA Salt]",–,–

SMILES,IC50 [2],IC50 [4],EC50 [5],Metabolic stability HLM % remaining in 30 min [1],Metabolic stability MLM % remaining in 30 min [3]
"O=C(NO)c1cccc(CNC2CC2c2ccccc2)c1 (centres unmarked) [Example 27, N-hydroxy-3-(((2-phenylcyclopropyl)amino)methyl)benzamide TFA]",> 1000 nM,16 nM,–,75%,51%
"CN(C)CCNC(=O)c1ccc(C2CC2NCC2CCN(CCCc3ccc(C(=O)NO)cc3)CC2)cc1 (centres unmarked) [Example 55, N-(2-(dimethylamino)ethyl)-4-(2-(((1-(3-(4-(hydroxycarbamoyl)phenyl)propyl)piperidin-4-yl)methyl)amino)cyclopropyl)benzamide TFA Salt]",130 nM,22 nM,–,40%,36%
"Cn1ccc(-c2ccc(C3CC3NCC3CCN(CCCc4ccc(C(=O)NO)cc4)CC3)cc2)cc1=O (centres unmarked) [Example 60, N-hydroxy-4-(3-(4-(((2-(4-(1-methyl-2-oxo-1,2-dihydropyridin-4-yl)phenyl)cyclopropyl)amino)methyl)piperidin-1-yl)propyl)benzamide TFA Salt]",46 nM,21 nM,–,73%,72%
"O=C(NO)c1ccc(CCCN2CCC(CNC3CC3c3ccc(-c4ccc(C(F)(F)F)nc4)cc3)CC2)cc1 (centres unmarked) [Example 66, N-hydroxy-4-(3-(4-(((2-(4-(6-(trifluoromethyl)pyridin-3-yl)phenyl)cyclopropyl)amino)methyl)piperidin-1-yl)propyl)benzamide TFA Salt]",100 nM,19 nM,–,79%,85%
"Nc1ccccc1NC(=O)c1ccc(CCC(=O)N2CCC(NC3CC3c3ccccc3)CC2)cc1 (centres unmarked) [Example 133, N-(2-aminophenyl)-4-(3-oxo-3-(4-((2-phenylcyclopropyl)amino)piperidin-1-yl)propyl)benzamide TFA Salt]",> 10000 nM,40 nM,–,19%,9%
